The data set concerns in vitro regenerates (shoots) of Mentha arvensis ‘Himalaya’ somaclones. In words: Menthol tolerance/toxicity test of in vitro regenerates in MS based medium containing menthol. Type of data set: cell-based. An excerpt:
The applicants used the plant ‘Himalaya’ (U.S. Plant Pat. No. 10,935), an elite mint genotype for large scale screening of in vitro raised clones (Khanuja S P S, Shasany A K, Dhawan S, Sushil Kumar, 1998, Rapid procedure for isolating somaclones of altered genotypes in Mentha arvensis. J medicinal and Aromatic Plant Sciences 20:359-361) to select clones tolerant to high menthol concentration in the medium (An efficient in vitro selection procedure for large scale screening of mint clones to isolate high menthol genotypes. Khanuja et al, Procedure patent pending, 1999).
While testing the tolerance of in vitro regenerates in presence of menthol in the MS based medium (Murashige T and Skoog F, 1962, A revised medium for rapid growth and bioassay with tobacco tissue cultures; Physiol. Planta. 15 473-497), the initial toxicity symptoms were first observed at the menthol concentration of 40 μg ml^−1 menthol after 7 days. […] Here it was immediate chlorophyll loss and irreversible wilting of the shoots, non-rescuable even by culturing these regenerates in normal medium without menthol. Lowest survival was detected at a concentration of 70 μg ml^−1, where only 1% shoots could survive. […] Ultimately 36, clones were selected for tolerance at 70 μg ml^−1 menthol by screening about 2950 clones. These were transferred to field for evaluation in a plant test area at Lucknow, India. […]

Consider `CC1CCC(C(C)C)C(O)C1` (centres unmarked) [menthol], for which the “menthol concentration tolerated in the culture medium” value (clone GRB-30 (‘Saksham’), retesting in vitro) turned out to be 80 µg/mL. Moreover, the “shoots that could survive (lowest survival)” value (menthol 70 μg ml^−1 in the medium) stood at 1%.

Source of the values: patent publication USPP13279P2, “Mint plant named ‘Saksham’” (Council of Scientific and Industrial Research, priority 2000, dated 2002).
